Values quoted from earlier work as cited in patent US7968545B2 (priority 2003, dated 2011).

Experiments:
[1] = human, in vivo
[2] = in vivo
[3] = in vivo; remark: listed apart in the source

| SMILES | share of patients in whom it works [1] [%] | success rate for the treatment of pain [2] [%] | reduction of infarct size [3] |
| --- | --- | --- | --- |
| NCC1(CC(=O)O)CCCCC1 [Gabapentin] | 60 | – | – |
| CSCC[C@@H]1NC(=O)[C@H](CC(C)C)NC(=O)[C@H](CCCNC(=N)N)NC(=O)[C@H](CO)NC(=O)[C@@H]2CSSC[C@@H]3NC(=O)[C@H](CO)NC(=O)CNC(=O)[C@H]([C@@H](C)O)NC(=O)[C@H](CSSC[C@H](N)C(=O)N[C@@H](CCCCN)C(=O)NCC(=O)N[C@@H](CCCCN)C(=O)NCC(=O)N[C@@H](C)C(=O)N[C@@H](CCCCN)C(=O)N2)NC(=O)[C@H](CSSC[C@@H](C(N)=O)NC(=O)[C@H](CCCCN)NC(=O)CNC(=O)[C@H](CO)NC(=O)[C@H](CCCNC(=N)N)NC3=O)NC(=O)[C@H](CC(=O)O)NC(=O)[C@H](Cc2ccc(O)cc2)NC1=O [Ziconotide, ω-conotoxin-MVIIA] | – | 85 | effective in reducing infarct size |
